Laboratory results reported in patent publication US20130244255A1, “ANTIBODIES DIRECTED TO GPNMB AND USES THEREOF” (priority 2006, published 2013).

Columns and labels:
[1] = tested on: CG56972-expressing cancer cells; assay: Growth inhibition by CR011 with saporin-conjugated secondary antibody; type: cell-based, human; details: data not shown
TK10 = assay: Anti-GPNMB antibody mediated indirect cell killing (saporin secondary conjugate, colony count); type: cell-based; details: antibody at 50 ng/mL with goat anti-human IgG-saporin 100 ng/well
Description: UACC-62, a GPNMB antigen expressing cell line, and TK10, a non-expressing cell line were plated onto flat bottom 96-well tissue culture plates (Becton Dickinson, Franklin Lakes, N.J., USA) at a density of 3000 cells per well. Once the cells reached ˜25% confluency, 100 ng/well of secondary antibody-toxin conjugate (goat anti-human IgG-saporin; Advanced Targeting Systems, San Diego, USA, HUM-ZAP; cat #IT-22) was added. […] An anti-EGFR monoclonal antibody (MS-269-PABX, NeoMarkers, Fremont, Calif., USA) was used as a positive primary antibody control. Chemotherapy reagent 5-FU at 600 uM was used as a positive reagent control. On day 5, the cells were trypsinized, transferred to 6-well tissue culture plates and incubated at 37° C. Plates were examined daily and between 8-10 days, all plates were Giemsa stained and colonies were counted.

Melanoma cell lines = assay: Clonogenic assay with 1.15.1-AE, melanoma panel; type: cell-based, human
Description: Melanoma cell lines were plated onto flat bottom 96-well tissue culture plates (Becton Dickinson, Franklin Lakes, N.J., USA). On day 2 or when cells reach ˜25% confluency, various concentrations of unconjugated and Auristatin E-conjugated 1.15.1 were added to cells. MAb 2.6.2-AE was also used as a conjugated isotype control in this study. On day 5, the cells were trypsinized, transferred to 6-well tissue culture plates and incubated at 37° C. Plates were examined daily. On days 8-10, all plates were Giemsa stained and colonies on the plates were counted.

CG56972-expressing cells = assay: Internalization of cell surface bound antibodies (flow cytometry); type: cell-based, human; details: following incubation with CG56972-expressing cells
Description: Internalization of cell surface bound antibodies was assessed by a modified flow cytometry procedure. […] After washing cells, incubation was shifted to 37° C. for 1 hr to allow internalization of bound antibodies. Cells that remained on ice (total surface bound) or that were incubated at 37° C. […] Labeled cells were analyzed by flow cytometry as described above. The percentage of antibody internalized was determined using the GMRs and the following formula:
Percent internalized=Total surface bound (4° C.)−Total surface bound (37° C.)/Total surface bound (4° C.)×100

[2] = tested on: CG56972-expressing cancer cell lines; assay: Growth of CG56972-expressing cells with naked CR011; type: cell-based, human; details: used directly, unconjugated
GPNMB = molecular target: T1, GPNMB (Homo sapiens, UniProt Q14956); assay: BiaCore 2000 analysis of hybridoma supernatants binding to GPNMB
T1 construct: we cloned the human CG56972 extracellular domain (ECD; aa 23-480); made in house; host or cells: HEK 293 cells
T1 sequence (Q14956 23-492): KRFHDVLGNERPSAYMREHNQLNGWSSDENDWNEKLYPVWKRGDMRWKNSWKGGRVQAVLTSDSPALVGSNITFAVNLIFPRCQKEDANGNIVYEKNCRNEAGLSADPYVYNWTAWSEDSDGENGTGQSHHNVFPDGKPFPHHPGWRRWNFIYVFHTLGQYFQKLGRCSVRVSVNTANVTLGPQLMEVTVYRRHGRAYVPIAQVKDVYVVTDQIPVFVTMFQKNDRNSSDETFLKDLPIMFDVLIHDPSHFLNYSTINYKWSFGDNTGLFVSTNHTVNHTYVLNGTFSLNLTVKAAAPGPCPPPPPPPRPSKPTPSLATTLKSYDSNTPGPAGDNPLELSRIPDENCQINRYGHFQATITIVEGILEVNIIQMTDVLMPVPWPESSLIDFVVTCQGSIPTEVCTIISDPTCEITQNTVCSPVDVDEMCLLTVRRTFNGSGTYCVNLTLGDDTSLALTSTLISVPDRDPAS
Description: Certain Hybridoma cell supernatants (29) were analyzed for binding to GPNMB by BiaCore® 2000 biosensor equipped with a research-grade CM5 sensor chip. A 1:25 dilution of cell supernatant was passed over a protein A surface for 5 min followed by washing the surface for 10 mins. Subsequently, GPNMB was injected for 90 sec. over the surface at a concentration of 880 nM followed by dissociation. Double-referenced binding data were obtained by subtracting the signal from a control flow cell and subtracting the baseline drift of a buffer injected just prior to the antigen injection. GPNMB binding data for each mAb was normalized for the amount of mAb captured on each surface. Normalized, drift corrected responses were also measured. The sensorgrams were fit to a simple 1:1 kinetic model.

SNB-78 = assay: Clonogenic assay with CR011-vcMMAE; type: cell-based, human
Description: (§1) Cells were plated in 96-well plates and allowed to recover overnight. […] The cells were then transferred into 6-well plates and allowed to form colonies. Colonies were stained with Giemsa stain (Sigma) and counted. The surviving cell fractions were calculated based upon the ratio of the treated sample and the untreated control. The results were expressed as a percentage of control using GraphPad Prism Version 4 software.

XF-498 = assay: Clonogenic assay with CR011-vcMMAE; type: cell-based, human
Description: as §1

Jurkat = assay: Clonogenic assay (methylcellulose) with 1.15.1-AE; type: cell-based, human
Description: (§2) Lymphoma or leukemia cell lines were mixed with methylcellulose base media (R&D Systems, USA) and in various concentrations of unconjugated and Auristatin E-conjugated 1.15.1 antibody before plating onto 6-well tissue culture plates (Becton Dickinson, Franklin Lakes, N.J., USA). […] Plates were incubated at 37° C. and examined daily. On days 14-18, colonies on the plates were counted.

KG-1 = assay: Clonogenic assay (methylcellulose) with 1.15.1-AE; type: cell-based, human
Description: as §2

SUP-M2 = assay: Clonogenic assay (methylcellulose) with 1.15.1-AE; type: cell-based, human
Description: as §2

SU-DHL-1 = assay: Clonogenic assay (methylcellulose) with 1.15.1-AE; type: cell-based, human
Description: as §2

DEL = assay: Clonogenic assay (methylcellulose) with 1.15.1-AE; type: cell-based, human
Description: as §2

MOLT-4 = assay: Clonogenic assay (methylcellulose) with 1.15.1-AE; type: cell-based, human
Description: as §2

Karpas 299 = assay: Clonogenic assay (methylcellulose) with 1.15.1-AE; type: cell-based, human
Description: as §2

SK-Mel-2 cells = assay: Clonogenic assay, SK-Mel-2 cells after GPNMB siRNA; type: cell-based, human
Description: as §1
The amount of GPNMB expression was reduced for at least 7 days after transfection.

[3] = mAb captured on protein A, GPNMB at 880 nM, 1:1 kinetic model

Substance: CR011: fully human monoclonal antibody that specifically binds to GPNMB; VH SEQ ID NO: 20, VL SEQ ID NO: 29
- growth inhibition with saporin-conjugated secondary antibody (in words) [1]: could specifically inhibit the growth
- cell death in GPNMB negative TK10 cells (TK10): less than 24%
- effect on growth of all the melanoma cell lines tested (in words) (Melanoma cell lines): no effect on growth
- internalization (in words) (CG56972-expressing cells): internalized
- effect of naked antibody on CG56972 expressing cells (in words) [2]: did not inhibit the growth
- effect of naked antibody on CG56972 expressing cells (in words) ([2]; listed as CR011 IgG2 mAb): no effect
- binding to GPNMB (in words) (GPNMB; BiaCore, 1:25 dilution of cell supernatant): strong binding
- Kd (GPNMB; [3]): 52 nM
- ka (GPNMB; [3]): 16524 M⁻¹ s⁻¹
- kd (GPNMB; [3]): 0.000855 s⁻¹

Substance: CR011-vcMMAE: CR011 conjugated to monomethyl auristatin E through a protease cleavable valine-citrulline linker; approx. 4 drugs per antibody
- IC50 (SNB-78): ~0.45 µg/mL
- IC50 (XF-498): approximately 215 ng/mL
- Clonogenic Assay with 1.15.1-AE IC50 in ng/mL (Jurkat): No effect (repeating)
- Clonogenic Assay with 1.15.1-AE IC50 in ng/mL (KG-1): No growth
- Clonogenic Assay with 1.15.1-AE IC50 in ng/mL (SUP-M2): No growth
- Clonogenic Assay with 1.15.1-AE IC50 in ng/mL (SU-DHL-1): No effect
- Clonogenic Assay with 1.15.1-AE IC50 in ng/mL (DEL): No effect
- Clonogenic Assay with 1.15.1-AE IC50 in ng/mL (MOLT-4): No effect (repeating)
- Clonogenic Assay with 1.15.1-AE IC50 in ng/mL (Karpas 299): Inconclusive
- sensitivity of SK-Mel-2 cells to growth-inhibitory activity following siRNA-mediated GPNMB knockdown (SK-Mel-2 cells): less sensitive
